The source of these data is article PMC9138261, “Enhancing the Bioactivity of Bicyclic Peptides Targeted to Grb7-SH2 by Restoring Cell Permeability” (Biomedicines, 2022).

As a reminder, the Kd is the constant that tells how readily two partners part at equilibrium.

The target of data set [1] is T1, Grb7-SH2 domain (Homo sapiens, UniProt Q14451).
T1 construct: made in house
Briefly: Surface plasmon resonance (SPR) binding to Grb7-SH2 domain. The conditions noted are these: for Kd: SPR BIAcore T100, GST-Grb7-SH2 captured via anti-GST antibody on CM5 chip, 50mM Na3PO4, 150–300 mM NaCl, 1 mM DTT pH 7.4, peptides without Penetratin, 0.015 to 250 μM, triplicate injections, steady-state, single-site binding model, errors are SD from model, SD, read-out: equilibrium dissociation binding constant (KD). How it is done: GST and GST-Grb7-SH2 proteins were expressed and purified as previously described. Briefly, Grb7-SH2 was expressed as a GST fusion, and protein was purified via GST affinity chromatography, followed by size exclusion chromatography.
SPR experiments were carried out as previously described using the BIAcore T100 [23, 26]. BIAcore CM5 series S sensor chips (GE Life Sciences, Paramatta, NSW, Australia) were utilised. Amine coupling was used to immobilise the anti-GST antibody (Abcam, Cambridge, UK) to all flow cells. The immobilisation levels were between 11,000 RU and 7700 RU. As a control, the first flow cell captured only GST. GST-Grb7-SH2 was immobilised on flow cell 2 at close to 2800 RU. Peptides were resuspended in an analysis buffer consisting of 50mM Na3PO4, 150–300 mM NaCl, and 1 mM DTT (pH 7.4). The peptide was injected over flow cells at 30 μL/min for 60–80 s in triplicates. Double-referenced SPR data were analysed using Scrubber 2.0 (BioLogic Software, Campbell, ACT, Australia) and Prism 9.2.0 (GraphPad Prism v9.0, San Diego, CA, USA).
Here, it should be noted that the peptides were tested in the absence of the Penetratin tail shown in the schematic (Figure 1). In brief, peptides, at a range of concentrations, flowed over the chip surface to which the Grb7-SH2 domain was tethered, and the response was detected over time. […] In order to quantitate the binding affinities, the equilibrium dissociation binding constants (KD) for each peptide were calculated using binding curves derived from the sensogram responses at equilibrium (Figure 2E).
Figure 2 SPR binding analysis of newly developed Grb7-SH2-targeting peptides. […] Errors are SD arising from model.
For orientation: SPR reads the build-up and loss of mass on a sensor chip optically.

The conditions of data set [2]: not told; cited from earlier work.
Data set [3] addresses T1, Grb7-SH2 domain. The conditions noted are these: earlier work; cited from earlier work. The text has this: Three peptides were designed with Phe-Pro, Phe-Trp, or Phe-Arg incorporated at positions 9 and 10 of the amino acid sequence. […] Thus, it can be concluded that the lactam linkage confers a degree of rigidity sufficient to enha ...
Target sequence in this assay (Q14451 431-527 limits assumed): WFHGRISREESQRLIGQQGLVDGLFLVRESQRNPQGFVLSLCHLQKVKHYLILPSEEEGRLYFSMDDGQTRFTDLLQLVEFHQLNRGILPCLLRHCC
A further data set addresses T2, GST-Grb7-SH2 (UniProt Q14451 415-532).
T2 construct: Captured on the chip by an anti-GST antibody; also called Grb7-SH2 domain
Description: SPR; BIAcore T100, CM5 chip; GST-Grb7-SH2 held (close to 2800 RU) on amine-coupled anti-GST antibody, GST alone on the reference flow cell; peptides 0.015 to 250 uM injected at 30 uL/min for 60-80 s in triplicates; 50 mM Na3PO4, 150-300 mM NaCl, 1 mM DTT, pH 7.4; KD from steady-state responses, single-site binding model. As to conditions: both partners purified.

Where two headings read alike, the source gives them in different places. Positions of bridges follow the written chain, without caps; N, C: chain ends. Residues, ends and D or L forms follow the SMILES beside them. No end group written: not given here.

T2 sequence (Q14451 415-532): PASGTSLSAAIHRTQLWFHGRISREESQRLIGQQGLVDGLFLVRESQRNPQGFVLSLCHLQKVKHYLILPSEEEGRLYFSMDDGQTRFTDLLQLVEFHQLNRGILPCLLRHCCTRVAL

As for `NC(=O)C[C@@H]1NC(=O)[C@H](CC(=O)O)NC(=O)[C@H](Cc2ccc(O)cc2)NC(=O)CNC(=O)[C@H](CCC(=O)O)NC(=O)[C@H](Cc2ccccc2)NC(=O)[C@@H]2CCCCNC(=O)CC[C@H](NC1=O)C(=O)N[C@@H](Cc1ccccc1)C(=O)N1CCC[C@H]1C(=O)N[C@H](C(N)=O)CSCC(=O)N2` [G7-B8] ({CH2CO}-KFEGYDNEFPC-NH2; lactam 1-8; thioether N-11; C-terminus assumed), the Kd at Grb7-SH2 domain [1] came to 860 ± 80 nM. Also, at Grb7-SH2 domain [1] (ratio of SPR KD values), the “fold increase in affinity over G7-18NATE” value is “approximately 8 fold”. On to `N=C(N)NCCC[C@@H]1NC(=O)[C@H](Cc2ccccc2)NC(=O)[C@@H]2CCC(=O)NCCCC[C@H](NC(=O)CSC[C@@H](C(N)=O)NC1=O)C(=O)N[C@@H](Cc1ccccc1)C(=O)N[C@@H](CCC(=O)O)C(=O)NCC(=O)N[C@@H](Cc1ccc(O)cc1)C(=O)N[C@@H](CC(=O)O)C(=O)N[C@@H](CC(N)=O)C(=O)N2` [G7-B10] ({CH2CO}-KFEGYDNEFRC-NH2; lactam 1-8; thioether N-11; C-terminus assumed), for which, at Grb7-SH2 domain [1], the equilibrium dissociation constant (Kd) amounted to 1150 ± 408 nM. In the case of `NC(=O)C[C@@H]1NC(=O)[C@H](CC(=O)O)NC(=O)[C@H](Cc2ccc(O)cc2)NC(=O)CNC(=O)[C@H](CCC(=O)O)NC(=O)[C@H](Cc2ccccc2)NC(=O)[C@@H]2CCCCNC(=O)CC[C@H](NC1=O)C(=O)N[C@@H](Cc1ccccc1)C(=O)N[C@@H](Cc1c[nH]c3ccccc13)C(=O)N[C@H](C(N)=O)CSCC(=O)N2` [G7-B9] ({CH2CO}-KFEGYDNEFWC-NH2; lactam 1-8; thioether N-11; C-terminus assumed), on Grb7-SH2 domain [1], the Kd was 2680 ± 390 nM. Take “KFEGYDNEC (also: bicyclic or more (positions not given here)) [G7-B7]”: the membrane permeability result in data set [2] is recorded as “membrane-impermeable”. In the case of “G7-B1: bicyclic G7 peptide with O-allylserine-based olefin staple between positions 1 and 8 (SFEGYDNSFPC; bicyclic: O-allylserine at positions 1 and 8 (parent Ser) joined by olefin staple (ring-closing metathesis); thioether linkage from N-terminal amine (acetyl/CH2CO) to Cys11 side chain; C-terminal amid)”, the Kd in the data set with Grb7-SH2 domain [3] was 1500 nM.

B1: G7-18NATE (peptide)
peptide: WFEGYDNTFPC
modifications: cyclic: thioether linkage that tethers the N-terminal amine to the cysteine side chain
notes: non-phosphorylated cyclic peptide of 11 amino acids identified by phage display; also called first-generation monocyclic peptide; source: synthetic peptide, bought: Purar Chemicals (RP-HPLC, >95% purity)
As to B1, in the data set with GST-Grb7-SH2, the Kd was determined as 7830 nM.
